# In patent US20250186439A1, “PYK2 INHIBITION MODULATES IMMUNE CELL FUNCTION” (The Children's Medical Center Corporation, priority 2022, published 2025):
# Entries after “also recorded” stand apart in the source; their conditions may differ.
# Experiments:
# Type in all cases: cell-based, mouse
# [1] = system: Lamp1; experiment: Immunoblot of Lamp1 (lysosomal activity) in MG6 cells; details: 1000 nM, under β-amyloid stimulation
# Procedure: FIGS. 6A and 6B. Responses of lysosomal function in microglia to β-amyloid stimulation. FIG. 6A: Immunoblots of MG6 cells after treatment with Pyk2 inhibitor and β-amyloid oligomers. Cells were pretreated with 100 ng/mL CSF-1 and 1000 nM Pyk2 inhibitor (PF431396) for 24 hours as indicated, then cell lysates were harvested after treatment with 500 ng/mL β-amyloid for 24 hours (lanes 4-6). MG6 cell lysates were subjected to immunoblotting of phosphorylated Pyk2 (p-Pyk2), Lamp1, Erk, and phosphorylated Erk (p-Erk). Tubulin was used as a loading control. FIG. 6B: Quantification of immunoblotting depicted in FIG. 6A. Ratios of p-Pyk2/Pyk2, Lamp1/Tubulin, and p-Erk/Erk were calculated for MG6 cells pretreated with CSF-1 and a Pyk2 inhibitor, as indicated.
# To assess lysosomal activity, Pyk2 inhibitor treated MG6 cells were also exposed to a disease-relevant substrate, β-amyloid protein, which is associated with progressive loss of neuronal function during Alzheimer's disease. After 24 hours of treatment with β-amyloid, control and Pyk2 inhibitor treated MG6 cells were collected, lysed, and immunoblotted in order to determine the relative protein levels of Pyk2, phosphorylated Pyk2, Lamp1, Erk, phosphorylated Erk, and tubulin (FIGS. 6A and 6B). […] However, in the presence of β-amyloid protein, an increase in Lamp1 was observed following treatment with Pyk2 inhibitor.
# [2] = system: MG6 cells; experiment: Phagocytosis of Hilite-555 labelled Aβ42 by MG6 cells; details: 24 h inhibitor, Hilite-555 labelled Aβ42 500 ng/mL; listed as Pyk2 inhibitor
# Procedure: FIGS. 5A-5D. Characteristics of Pyk2 inhibition on phagocytotic activity in microglia. FIG. 5A: Immunofluorescent imaging depicting phagocytosis of pHrodo Red E. coli BioParticles by MG6 cells after exposure to Pyk2 inhibitors. MG6 cells were either untreated (left) or treated with 1000 nM Pyk2 inhibitor treatment for 24 hours (right). Immunofluorescent images were obtained via confocal microscopy (×600). MG6 cells were fixed and stained with phalloidin-AlexaFluor488 to visualize actin, and with DAPI to visualize nuclei (encircled). Scale bar is 20 μm. […] FIG. 5B: Immunofluorescent imaging depicting phagocytosis of pHrodo Red E. coli BioParticles by mononucleated and multinucleated MG6 cells after exposure to Pyk2 inhibitors. MG6 cells were treated and imaged as in FIG. 5A. After obtaining three-dimensional images, BioParticles are quantified by a spot analysis using IMARIS software (bottom figures). FIG. 5C: Quantification of spot analysis in FIG. 5B. The output of IMARIS spot analysis was analyzed using one-way ANOVA. […] FIG. 5D: Phagocytotic activity for Aβ in MG6 cells. Immunostaining for Iba1 and Aβ in control and Pyk2 inhibitor treated group. MG6 cells were treated with Pyk2 inhibitor or vehicle for 24 hours and then Hilite-555 labelled Aβ42 was added for 24 hours. Data are representative images of four wells from three independent experiments. […]
# [3] = system: MG6 cells; experiment: Phagocytosis of pHrodo Red E. coli BioParticles by MG6 cells (confocal, IMARIS spot analysis); details: 1000 nM, 24 h
# Procedure: FIGS. 5A-5D. Characteristics of Pyk2 inhibition on phagocytotic activity in microglia. FIG. 5A: Immunofluorescent imaging depicting phagocytosis of pHrodo Red E. coli BioParticles by MG6 cells after exposure to Pyk2 inhibitors. MG6 cells were either untreated (left) or treated with 1000 nM Pyk2 inhibitor treatment for 24 hours (right). Immunofluorescent images were obtained via confocal microscopy (×600). MG6 cells were fixed and stained with phalloidin-AlexaFluor488 to visualize actin, and with DAPI to visualize nuclei (encircled). Scale bar is 20 μm. […] FIG. 5B: Immunofluorescent imaging depicting phagocytosis of pHrodo Red E. coli BioParticles by mononucleated and multinucleated MG6 cells after exposure to Pyk2 inhibitors. MG6 cells were treated and imaged as in FIG. 5A. After obtaining three-dimensional images, BioParticles are quantified by a spot analysis using IMARIS software (bottom figures). FIG. 5C: Quantification of spot analysis in FIG. 5B. The output of IMARIS spot analysis was analyzed using one-way ANOVA. […] FIG. 5D: Phagocytotic activity for Aβ in MG6 cells. Immunostaining for Iba1 and Aβ in control and Pyk2 inhibitor treated group. MG6 cells were treated with Pyk2 inhibitor or vehicle for 24 hours and then Hilite-555 labelled Aβ42 was added for 24 hours. Data are representative images of four wells from three independent experiments. A 20 μm scale bar is in the bottom-left corner.
# To assess whether or not Pyk2 inhibitor treated, multinuclear MG6 cells were also more phagocytic, treated MG6 cells were subsequently exposed to pHrodo Red E. coli BioParticles (Thermo Fisher Scientific #P35360), a fluorogenic phagocytic substrate derived from Escherichia coli. […] To assess if there was any difference in the phagocytosis of mononucleated and multinucleated MG6 cells, treated cells were assessed via confocal microscopy to generate three-dimensional images of phagocytosed particles, which were then quantified using IMARIS cell imaging software (FIG. 5B).
structure (smiles),measurement,setting,value
CN(c1ccccc1CNc1nc(Nc2ccc3c(c2)CC(=O)N3)ncc1C(F)(F)F)S(C)(=O)=O [PF-431396],Lamp1 (lysosomal activity),[1],increased
same,Lamp1 (lysosomal activity),[1]; listed as Pyk2 inhibitor,increase
same,phagocytosis of Aβ42,[2],increased phagocytosis; also recorded: significantly higher
same,"phagocytic activity, treated mononuclear and multinuclear microglia combined vs controls",[3],significantly higher
same,"phagocytosis of pHrodo Red E. coli BioParticles, mononucleated treated cells vs control",[3]; listed as Pyk2 inhibitor,no significant difference
same,"phagocytosis of pHrodo Red E. coli BioParticles, multinucleated treated cells vs control/mononucleated",[3]; listed as Pyk2 inhibitor,statistically significant increase; also recorded: significantly higher
